The values that follow come from BindingDB's records for doi:10.1016/j.bmcl.2003.07.008 (University of Lille, 2003).

Bounds are passed on as bounds.

This test can be described thus: Inhibition of 1-monooleoyl glycerol (MOG) induced beta-hematin formation.

On to `CC(C)CN(CCCN1CCN(CCCNc2ccnc3cc(Cl)ccc23)CC1)CC(C)C` [7-chloro-N-(3-(4-(3-(diisobutylamino)propyl)piperazin-1-yl)propyl)quinolin-4-amine], for which half-maximal inhibition (IC50) required 43.4 µM.

As to `CC(C)CN(CCCN1CCN(CCCNc2nc3ccccc3[nH]2)CC1)CC(C)C` [(1H-Benzoimidazol-2-yl)-{3-[4-(3-diisobutylamino-propyl)-piperazin-1-yl]-propyl}-amine], it took 63.6 µM to reach half-maximal inhibition (IC50).

In turn, `CC(C)CN(CCCN1CCN(CCCNc2nc3ccccc3o2)CC1)CC(C)C` [Benzooxazol-2-yl-{3-[4-(3-diisobutylamino-propyl)-piperazin-1-yl]-propyl}-amine] showed an IC50 of more than 200 µM.

`CC(C)CN(CCCN1CCN(CCCNCc2ccncc2)CC1)CC(C)C` [Diisobutyl-[3-(4-{3-[(pyridin-4-ylmethyl)-amino]-propyl}-piperazin-1-yl)-propyl]-amine] displayed an IC50 of more than 200 µM.

Take `CC(C)CN(CCCN1CCN(CCCNc2cnccn2)CC1)CC(C)C` [{3-[4-(3-Diisobutylamino-propyl)-piperazin-1-yl]-propyl}-pyrazin-2-yl-amine]: the IC50 is more than 200 µM.

On to `CC(C)CN(CCCN1CCN(CCCNc2ccnc3ccccc23)CC1)CC(C)C` [{3-[4-(3-Diisobutylamino-propyl)-piperazin-1-yl]-propyl}-quinolin-4-yl-amine], for which the half-inhibitory concentration (IC50) was 62.3 µM. In other words, the double-digit micromolar range.

One may read the IC50 as the concentration that gives 50% inhibition. High values mean weaker potency in that assay, low ones greater potency in that assay.
